Experiments:
Assay type in all cases: in vivo
[1] = test system: ducksalad (Heteranthera limosa); experiment: Test B flooded paddy test, ducksalad; settings: 250 g ai/ha, Flood; visual rating after 13 to 15 days; scale 0 to 100, 0 is no effect, 100 is complete control
Procedure, shortened: (§1)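 Visual injury scored 0 (no effect) to 100 (complete control) relative to controls 13-15 days after treatment in greenhouse. Treatment: test compound added into paddy water of pots flooded 3 cm over soil, holding 2-leaf-stage plants; water level kept constant.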

[2] = test system: foxtail, giant (giant foxtail, Setaria faberii); experiment: Test A postemergence, giant foxtail; settings: postemergence, 0 to 100 scale, 0 is no effect, 100 is complete control, approximately 10 days
Procedure, shortened: (§2)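 Scores (0 no effect to 100 complete control) come from visual comparison of treated and untreated plants kept about 10 days in a greenhouse. Growth medium was a loam/sand blend; preemergence treatment was a directed soil spray, postemergence treatment went onto plants at the 1–2 leaf stage.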

[3] = test system: pigweed (Amaranthus retroflexus); experiment: Test A preemergence, pigweed; settings: Preemergence, 0 to 100 scale (0 no effect, 100 complete control)
Procedure, shortened: as §2

corn (Zea mays) = experiment: Test A postemergence, corn; settings: postemergence, 0 to 100 scale, 0 is no effect, 100 is complete control, approximately 10 days
Procedure, shortened: as §2

[4] = test system: galium (catchweed bedstraw, Galium aparine); experiment: Test A postemergence, galium; settings: postemergence, 0 to 100 scale, 0 is no effect, 100 is complete control, approximately 10 days
Procedure, shortened: as §2

[5] = test system: ragweed (common ragweed, Ambrosia elatior); experiment: Test A postemergence, ragweed; settings: postemergence, 0 to 100 scale, 0 is no effect, 100 is complete control, approximately 10 days
Procedure, shortened: as §2

[6] = test system: barnyardgrass (Echinochloa crus-galli); experiment: Test A postemergence, barnyardgrass; settings: postemergence, 0 to 100 scale, 0 is no effect, 100 is complete control, approximately 10 days
Procedure, shortened: as §2

[7] = test system: blackgrass (Alopecurus myosuroides); experiment: Test A postemergence, blackgrass; settings: postemergence, 0 to 100 scale, 0 is no effect, 100 is complete control, approximately 10 days
Procedure, shortened: as §2

[8] = test system: sedge, umbrella (small-flower umbrella sedge, Cyperus difformis); experiment: Test B flooded paddy test, umbrella sedge; settings: 250 g ai/ha, Flood; visual rating after 13 to 15 days; scale 0 to 100, 0 is no effect, 100 is complete control
Procedure, shortened: as §1

[9] = test system: barnyardgrass (Echinochloa crus-galli); experiment: Test B flooded paddy test, barnyardgrass; settings: 250 g ai/ha, Flood; visual rating after 13 to 15 days; scale 0 to 100, 0 is no effect, 100 is complete control
Procedure, shortened: as §1

[10] = test system: ryegrass, Italian (Italian ryegrass, Lolium multiflorum); experiment: Test A preemergence, Italian ryegrass; settings: Preemergence, 0 to 100 scale (0 no effect, 100 complete control)
Procedure, shortened: as §2

rice (Oryza sativa) = experiment: Test B flooded paddy test, rice; settings: 250 g ai/ha, Flood; visual rating after 13 to 15 days; scale 0 to 100, 0 is no effect, 100 is complete control
Procedure, shortened: as §1

[11] = test system: pigweed (Amaranthus retroflexus); experiment: Test A postemergence, pigweed; settings: postemergence, 0 to 100 scale, 0 is no effect, 100 is complete control, approximately 10 days
Procedure, shortened: as §2

[12] = test system: wheat (Triticum aestivum); experiment: Test A postemergence, wheat; settings: postemergence, 0 to 100 scale, 0 is no effect, 100 is complete control, approximately 10 days
Procedure, shortened: as §2

[13] = test system: ryegrass, Italian (Italian ryegrass, Lolium multiflorum); experiment: Test A postemergence, Italian ryegrass; settings: postemergence, 0 to 100 scale, 0 is no effect, 100 is complete control, approximately 10 days
Procedure, shortened: as §2

kochia (Kochia scoparia) [14] = experiment: Test A preemergence, kochia; settings: Preemergence, 0 to 100 scale (0 no effect, 100 complete control)
Procedure, shortened: as §2

[15] = test system: barnyardgrass (Echinochloa crus-galli); experiment: Test A preemergence, barnyardgrass; settings: Preemergence, 0 to 100 scale (0 no effect, 100 complete control)
Procedure, shortened: as §2

kochia (Kochia scoparia) [16] = experiment: Test A postemergence, kochia; settings: postemergence, 0 to 100 scale, 0 is no effect, 100 is complete control, approximately 10 days
Procedure, shortened: as §2

[17] = test system: ragweed (common ragweed, Ambrosia elatior); experiment: Test A preemergence, ragweed; settings: Preemergence, 0 to 100 scale (0 no effect, 100 complete control)
Procedure, shortened: as §2

[18] = test system: foxtail, giant (giant foxtail, Setaria faberii); experiment: Test A preemergence, giant foxtail; settings: Preemergence, 0 to 100 scale (0 no effect, 100 complete control)
Procedure, shortened: as §2

## N#Cc1cccc(Oc2ncc(Cl)cn2)c1OCc1ccc(Cl)cc1 [Compound 3]
[1]
  Plant response rating, Ducksalad: 0
[2]; 125 g ai/ha
  Plant response rating, Foxtail, Giant: 60
[2]; 500 g ai/ha
  Plant response rating, Foxtail, Giant: 70
[3]; 125 g ai/ha
  Plant response rating, Pigweed: 90
[3]; 500 g ai/ha
  Plant response rating, Pigweed: 90
Corn (Zea mays); 125 g ai/ha
  Plant response rating, Corn: 10
Corn (Zea mays); 500 g ai/ha
  Plant response rating, Corn: 20
[4]; 125 g ai/ha
  Plant response rating, Galium: 60
[4]; 500 g ai/ha
  Plant response rating, Galium: 90
[5]; 125 g ai/ha
  Plant response rating, Ragweed: 60
[5]; 500 g ai/ha
  Plant response rating, Ragweed: 60
[6]; 125 g ai/ha
  Plant response rating, Barnyardgrass: 50
[6]; 500 g ai/ha
  Plant response rating, Barnyardgrass: 50
[7]; 125 g ai/ha
  Plant response rating, Blackgrass: 20
[7]; 500 g ai/ha
  Plant response rating, Blackgrass: 50
[8]
  Plant response rating, Sedge, Umbrella: 80
[9]
  Plant response rating, Barnyardgrass: 0
[10]; 125 g ai/ha
  Plant response rating, Ryegrass, Italian: 20
[10]; 500 g ai/ha
  Plant response rating, Ryegrass, Italian: 30
Rice (Oryza sativa)
  Plant response rating, Rice: 0
[11]; 125 g ai/ha
  Plant response rating, Pigweed: 100
[11]; 500 g ai/ha
  Plant response rating, Pigweed: 100
[12]; 125 g ai/ha
  Plant response rating, Wheat: 0
[12]; 500 g ai/ha
  Plant response rating, Wheat: 10
[13]; 125 g ai/ha
  Plant response rating, Ryegrass, Italian: 20
[13]; 500 g ai/ha
  Plant response rating, Ryegrass, Italian: 30
Kochia (Kochia scoparia) [14]; 125 g ai/ha
  Plant response rating, Kochia: 80
Kochia (Kochia scoparia) [14]; 500 g ai/ha
  Plant response rating, Kochia: 90
[15]; 125 g ai/ha
  Plant response rating, Barnyardgrass: 50
[15]; 500 g ai/ha
  Plant response rating, Barnyardgrass: 90
Kochia (Kochia scoparia) [16]; 125 g ai/ha
  Plant response rating, Kochia: 70
Kochia (Kochia scoparia) [16]; 500 g ai/ha
  Plant response rating, Kochia: 90
[17]; 125 g ai/ha
  Plant response rating, Ragweed: 0
[17]; 500 g ai/ha
  Plant response rating, Ragweed: 10
[18]; 125 g ai/ha
  Plant response rating, Foxtail, Giant: 90
[18]; 500 g ai/ha
  Plant response rating, Foxtail, Giant: 100

From patent US10485235B2, “Aryloxypyrimidinyl ethers as herbicides” (FMC Corporation, priority 2015, dated 2019)
